{
  "source": "patent US20090155395A1",
  "about": "(SAGITTARIUS LIFE SCIENCE CORP., priority 2007, published 2009)",
  "key": {"[1]": {"system": "Propionibacterium acnes (ATCC 6919)", "test": "Minimum inhibitory concentration (MIC), broth dilution method", "assay_type": "cell-based", "protocol": "Minimum inhibitory concentration (MIC) was determined by the broth dilution method (Edwards, J. R. et. al., Antimicrob Agents Chemother. 1989; 33(2):215-22).\n10 ul aliquot (1% DMSO final concentration) of serial dilutions were added into 0.99 ml of Reinforced Clostridial Medium (Oxiod, England.) with 1-5×10^5 CFU/ml of Propionibacterium acnes (ATCC 6919). […] Vehicle-control and active reference agents were used as blank and positive controls, respectively."}, "[2]": {"molecular_target": "T1, Steroid 5-α-reductase isolated from liver of Wistar rat (Rattus norvegicus, UniProt P24008)", "T1 construct": "isolated from liver of Wistar rat by conventional centrifugation; from tissue; host or cells: liver of Wistar rat", "T1 sequence (P24008 1-259)": "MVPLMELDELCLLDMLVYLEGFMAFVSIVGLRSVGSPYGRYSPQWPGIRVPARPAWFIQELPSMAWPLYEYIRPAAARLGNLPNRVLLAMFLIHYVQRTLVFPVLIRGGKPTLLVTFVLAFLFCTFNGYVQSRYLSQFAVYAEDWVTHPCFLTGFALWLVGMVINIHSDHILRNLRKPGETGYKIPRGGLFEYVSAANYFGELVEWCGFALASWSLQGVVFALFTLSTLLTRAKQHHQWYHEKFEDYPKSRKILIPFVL", "test": "Steroid 5-α-reductase inhibition (testosterone EIA)", "assay_type": "biochemical", "settings": "rat liver enzyme, 1 μM testosterone, 30 minutes", "from_the_text": "Steroid 5-α-reductase isolated from liver of Wistar rat by conventional centrifugation was used (Liang T, et. al., Endocrinology. 1985;117(2): 571-9).\nThe reaction was terminated by addition of 1 N HCl and neutrilized by 1 N NaOH. Testosterone was quantitated by using a Testosterone EIA Kit."}, "[3]": {"molecular_target": "T2, Human recombinant Cyclooxygenase-2 expressed in Sf21 cells (Homo sapiens, UniProt P35354)", "T2 construct": "purchased Sigma C-0858; host or cells: Sf21 cells", "T2 sequence (P35354 18-604)": "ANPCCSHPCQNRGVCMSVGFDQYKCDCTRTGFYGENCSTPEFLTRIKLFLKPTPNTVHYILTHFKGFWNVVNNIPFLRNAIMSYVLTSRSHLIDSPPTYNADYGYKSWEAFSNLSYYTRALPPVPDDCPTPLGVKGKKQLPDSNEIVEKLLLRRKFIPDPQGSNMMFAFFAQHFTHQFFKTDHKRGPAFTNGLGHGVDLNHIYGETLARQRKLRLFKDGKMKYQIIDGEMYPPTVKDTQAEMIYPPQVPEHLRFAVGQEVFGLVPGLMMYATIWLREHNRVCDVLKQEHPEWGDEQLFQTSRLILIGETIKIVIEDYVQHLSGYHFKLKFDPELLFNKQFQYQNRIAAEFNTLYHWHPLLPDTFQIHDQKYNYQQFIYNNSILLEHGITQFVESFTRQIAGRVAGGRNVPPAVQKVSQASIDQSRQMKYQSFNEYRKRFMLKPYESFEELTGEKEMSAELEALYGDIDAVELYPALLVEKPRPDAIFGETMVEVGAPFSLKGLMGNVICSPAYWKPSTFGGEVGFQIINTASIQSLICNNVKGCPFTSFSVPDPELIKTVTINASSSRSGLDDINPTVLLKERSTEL", "test": "COX II inhibition (PGE2 EIA)", "assay_type": "biochemical", "settings": "human recombinant enzyme, 0.3 μM arachidonic acid", "protocol": "The reaction was initiated by addition of 0.3 μM arachidonic acid for 5 minutes and terminated by further addition of 1 N HCl. Following centrifugation, substrate conversion to PGE2 was measured by an Amersham EIA kit."}, "[4]": {"test": "Free radical scavenger, SOD mimetic activity (xanthine-xanthine oxidase / NBT reduction)", "assay_type": "biochemical", "settings": "inhibition of NBT reduction, pH 10.5, 25° C., 20 minutes", "protocol": "(§1) The method to measure SOD (SOD, EC.1.15.1.1) activity was based on the inhibition of nitroblue tetrazolium reduction with xanthine-xanthine oxidase used as a superoxide generator (Sun Y, et. al., Clin. Chem. 1988; 34: 497-500).\n(§2) Conversion of xanthine to uric acid +O^−+NBT to formazan was then determined by measurement of absorbance at 595 nm and percent inhibition by superoxide dismutase mimetic or test compound was calculated."}, "[5]": {"molecular_target": "xanthine-xanthine oxidase (superoxide generator)", "test": "Superoxide dismutase (SOD) mimetic activity, inhibition of nitroblue tetrazolium reduction", "assay_type": "biochemical", "settings": "0.12 mM xanthine, 6 mU xanthine oxidase, 27 μM NBT, pH 10.5, 25° C., 20 minutes", "protocol": "as §1, §2"}, "[6]": {"settings": "Cutibacterium acnes, ATCC6919, broth dilution, 37° C., 48 hours, anaerobic, read-out: MIC"}},
  "note": "Like-named read-outs stand apart in the source and are kept apart here.",
  "data": [
    {"molecule": "Gentamicin", "values": [
      {"measurement": "MIC", "setting": "[1]; broth dilution, 37° C., 48 hours, anaerobic", "value": 30, "unit": "µg/mL"}
    ]},
    {"molecule": "CC(C)(C)NC(=O)[C@H]1CC[C@H]2[C@@H]3CC[C@H]4NC(=O)C=C[C@]4(C)[C@H]3CC[C@]12C", "note": "[Finasteride]", "values": [
      {"measurement": "IC50", "setting": "[2]", "value": 25, "unit": "nM"}
    ]},
    {"molecule": "O=C(O)c1cccnc1Nc1cccc(C(F)(F)F)c1", "note": "[Niflumic acid]", "values": [
      {"measurement": "IC50", "setting": "[3]", "value": 691, "unit": "nM"}
    ]},
    {"molecule": "CC1(C)S[C@@H]2[C@H](NC(=O)[C@H](N)c3ccccc3)C(=O)N2[C@H]1C(=O)O", "note": "[Ampicillin]", "values": [
      {"measurement": "MIC", "setting": "[1]; [6]", "value": 0.1, "unit": "µg/mL"}
    ]},
    {"molecule": "Superoxide dismutase (SOD): standard reference agent used, Human SOD MW = 2 × 28.3 KDa", "values": [
      {"measurement": "IC50, SOD mimetic activity", "setting": "[4]", "value": 0.475, "unit": "µg/mL"}
    ]},
    {"molecule": "CCCCC/C=C\\C/C=C\\C/C=C\\CCCCC(=O)O", "note": "[γ-Linolenic Acid]", "values": [
      {"measurement": "IC50", "setting": "[2]", "value": 14000, "unit": "nM"}
    ]},
    {"molecule": "CC1COc2c(N3CCN(C)CC3)c(F)cc3c(=O)c(C(=O)O)cn1c23", "note": "(centres unmarked) [Ofloxacin]", "values": [
      {"measurement": "MIC", "setting": "[1]; [6]", "value": 1, "unit": "µg/mL"}
    ]},
    {"molecule": "O=C(O[C@@H]1Cc2c(O)cc(O)cc2O[C@@H]1c1ccc(O)c(O)c1)c1cc(O)c(O)c(O)c1", "note": "[(−)-Epicatechin gallate]", "values": [
      {"measurement": "IC50, SOD mimetic activity", "setting": "[4]", "value": 2.698, "unit": "µg/mL"},
      {"measurement": "IC50", "setting": "[5]", "value": 2.698, "unit": "µg/mL"}
    ]},
    {"molecule": "CN[C@H](CC(C)C)C(=O)N[C@H]1C(=O)N[C@@H](CC(N)=O)C(=O)N[C@H]2C(=O)N[C@H]3C(=O)N[C@H](C(=O)N[C@H](C(=O)O)c4cc(O)cc(O)c4-c4cc3ccc4O)[C@H](O)c3ccc(c(Cl)c3)Oc3cc2cc(c3O[C@@H]2O[C@H](CO)[C@@H](O)[C@H](O)[C@H]2O[C@H]2C[C@](C)(N)[C@H](O)[C@H](C)O2)Oc2ccc(cc2Cl)[C@H]1O", "note": "[Vancomycin]", "values": [
      {"measurement": "MIC", "setting": "[1]; Cutibacterium acnes, ATCC6919, 48 h", "value": 1, "unit": "µg/mL"}
    ]},
    {"molecule": "CN(C)[C@@H]1C(O)=C(C(N)=O)C(=O)[C@@]2(O)C(O)=C3C(=O)c4c(O)cccc4[C@@](C)(O)[C@H]3C[C@@H]12", "note": "[Tetracycline]", "values": [
      {"measurement": "MIC", "setting": "[1]; [6]", "value": 1, "unit": "µg/mL"}
    ]}
  ]
}
